Laboratory results: PubChem BioAssay AID602211 (Sanford-Burnham Center for Chemical Genomics, 2012)
Activity calls are given as the source filed them.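 The calls were made as follows: active = mean IC50 at or below 10 µM; inactive = the rest.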

Each compound was assayed on H9c2 cardiomyocytes, H2O2 protection, ATPLite viability, 2 h (assay: H2O2-induced H9c2 cell death suppression – ATPLite luminescence, set 2, dose response (AID 602211);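 also: potency is for protection so actives keep ATP signal up against peroxide killing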).
For `C[C@@H](NC(=O)c1nc[nH]c1C(=O)NCC(=O)OCc1ccccc1)c1ccccc1`, the IC50 was 51.6 µM (inactive).
In the case of `COc1cc(-c2cnc3c(NC=O)cc(-c4ccsc4)cn23)cc(OC)c1OC`, the IC50 is reported as > 79 µM (inactive).
With `CC(C)(C)OC(=O)C[C@@H]1C/C=C\C[C@@H](CC(=O)N[C@@H](CO)Cc2ccccc2)C(=O)NC[C@@H](c2ccccc2)OC1=O` the IC50 was 12.9 µM (inactive).
For `NC(=O)c1cccc(-c2coc3c(C(=O)NCCc4ccccc4)cccc23)c1`, the IC50 was > 79 µM (inactive).
`O=C(N/N=C/c1ccc(-c2cccc([N+](=O)[O-])c2)o1)c1ccc([N+](=O)[O-])cc1` gave an IC50 of 7 µM.
For `O=C(Nc1ccc(C(=O)N2CCOCC2)cc1)c1cnn2c(C(F)F)cc(-c3ccccc3)nc12`, the IC50 was 2.8 µM.
In the case of `CCOc1ccccc1N1CC(O)=C(c2nc3ccccc3s2)C1=N`, the IC50 is reported as > 79 µM (inactive).
`COc1ccc(-c2cc(-c3nnc(COC(=O)c4ccncc4)o3)c3ccccc3n2)cc1OC` gave an IC50 of 5.89 µM.
For `COc1cc(-c2cc(C(=O)NCc3ccco3)c3ccccc3n2)cc(OC)c1OC`, the IC50 was 13.5 µM (inactive).
For `CC1(C)Cc2c(c(N3CCOCC3)nc3sc4c(NN)ncnc4c23)CS1`, the IC50 was > 79 µM (inactive).
With `CCOC(=O)N1CCN(C(=O)CSc2nc3ccccc3c(=O)n2-c2ccccc2)CC1` the IC50 was 18.8 µM (inactive).
In the case of `COCCn1c(=NC(=O)c2nc3ccccc3s2)sc2cc(S(C)(=O)=O)ccc21`, the IC50 is reported as 1.4 µM.
For `Cc1ccc(-c2nnc(NCc3nc4ccccc4[nH]3)c3ccccc23)cc1S(=O)(=O)N1CCOCC1`, the IC50 was 4.11 µM.
In the case of `CCC(CC)C(=O)Nc1cc(C)c2c(=O)oc3ccccc3c2n1`, the IC50 is reported as 2.05 µM.
For `COC(=O)c1[nH]c2cc(OC)c(OC)cc2c1/C=N/Nc1ccccc1`, the IC50 was 6.78 µM.
In the case of `COc1ccc(C(=O)COC(=O)C(CCCCN2C(=O)C3C4C=CC(C4)C3C2=O)N2C(=O)C3C4C=CC(C4)C3C2=O)cc1` (stereo unspecified), the IC50 is reported as 4.84 µM.
For `Cn1c(=O)[nH]c(=O)c2c1nc(N(CCO)Cc1ccccc1)n2CCCc1ccccc1`, the IC50 was 11.3 µM (inactive).
For `COc1ccc(-n2c(/C=C/c3ccc(O)cc3)nc3ccccc3c2=O)cc1`, the IC50 was 6.21 µM.
`COc1cccc(-c2cnc3c(NC=O)cc(-c4cc(OC)c(OC)c(OC)c4)cn23)c1` gave an IC50 of 3.61 µM.
`COc1ccc(C(C(=O)NCc2ccccc2)N(Cc2ccco2)C(=O)c2snc(C(N)=O)c2N)cc1` (stereo unspecified) gave an IC50 of 3.63 µM.
Work on `COc1cc(/C=N/NC(=O)c2cccnc2)ccc1OCC(=O)Nc1ccccc1Cl` yielded an IC50 of 1.78 µM.
`N#C/C(=C\c1ccc(-c2cccc([N+](=O)[O-])c2)o1)C(=O)NCCN1CCOCC1` was tested, and the IC50 was > 79 µM (inactive).
With `COc1ccc(-c2ccc3c(c2)S(=O)(=O)c2cccc(C(=O)N4CCN(c5c(Cl)cncc5Cl)CC4)c2C3=O)cc1OC` the IC50 was 4.27 µM.
For `COc1cc(/C=C(\C#N)C(=O)Nc2ccccc2)ccc1OCCN1CCOCC1`, the IC50 was 11.7 µM (inactive).
`CC(=O)Nc1cccc(-c2cc(NC(C)=O)c3ncc(-c4ccccc4)n3c2)c1` was tested, and the IC50 was 13.7 µM (inactive).
`COc1ccc(-c2cc3nc(-c4ccccc4)cc(N4CCN(C(=O)c5ccoc5)CC4)n3n2)cc1` showed an IC50 of 4.91 µM.
`CC(C)C(=O)N1CCN(c2ccc(NC(=O)COc3ccccc3[N+](=O)[O-])cc2)CC1` gave an IC50 of 1.07 µM.
`COc1cc(OC)c(-c2nn3c(-c4ccco4)nnc3s2)cc1OC` was tested, and the IC50 was 4.56 µM.
`COc1ccccc1NC(=O)COc1ccc(/C=N/NC(=O)c2cccnc2)cc1` showed an IC50 of 9.9 µM.
In the case of `CCC1(CC)NC(=O)N(CC(=O)OCC(=O)Nc2ccccc2[N+](=O)[O-])C1=O`, the IC50 is reported as 37.3 µM (inactive).
For `CCN(CC)c1ccc(C2C(C(=O)OC(C)C)C(=O)CC(C)(O)C2C(=O)OC(C)C)cc1` (stereo unspecified), the IC50 was 7.99 µM.
In the case of `COc1ccc(/C=C/C(=O)c2ccccc2O)cc1CN1CCOCC1`, the IC50 is reported as 7.14 µM.
For `O=C(CNC(=O)c1nc[nH]c1C(=O)NCc1ccccc1)OCc1ccccc1`, the IC50 was > 79 µM (inactive).
For `COc1cccc(Nc2nc3ccccc3n3nnnc23)c1`, the IC50 was > 79 µM (inactive).
`COc1ccc(Nc2nnc(-c3ccc(O)cc3)c3ccccc23)cc1C(N)=O` was tested, and the IC50 was 11.3 µM (inactive).
In the case of `CC1(C)CC(=O)C2=C(C1)N(CCN1CCOCC1)C1=C(C(=O)CC(C)(C)C1)C2c1ccc(Cl)cc1`, the IC50 is reported as 9.75 µM.
